Where two headings read alike, the source gives them in different places.
Experiments:
[1] = Plasma pharmacokinetics in mice; assay type: in vivo; conditions: for bioavailability: read-out: absolute bioavailability
Method: A single dose (10 mg/kg) and various routes of administration (intravenous, oral, and subcutaneous) were used in order to approximate its in vivo disposition and interpret the results of subchronic toxicity studies and forthcoming in vivo xenograft studies. Diindole 13 was administered to groups (n=60) of mice for each route of administration. Mice (n=5 per time point) were sacrificed at up to twelve different time points (pre-dose and up to 24 h post-dose), and plasma samples were stored at −80° C. until HPLC analysis. An HPLC/UV analytical method was developed and validated to determine diindole 13 concentrations in plasma, with a linear range of 0.02 to 20 μg/mL and intra- and inter-day coefficients of variation at all concentrations less than 6%.

cyclin B1, Cdc25C, Cdc2 = assay: Western blot of G2-M regulators; assay type: cell-based, human; conditions: PC-3 cells, 24 h treatment
Method: Treated cells were lysed in cold lysis buffer (20 mM Tris-HCl, pH 7.5, 150 mM NaCl, 1 mM Na2 EDTA, 1% Triton x-100, and freshly added Na3VO4 (2 mM), NaF (20 mM) and complete protease inhibitor cocktail). For each sample, an aliquot (20 to 40 μg) of total protein was loaded and run on a SDS-Page gel. Protein was transferred to nitrocellulose membranes (Bio-Rad Laboratories, Hercules, Calif.), blocked with 5% non-fat milk, incubated with primary antibody overnight at 4° C., and then incubated with secondary antibody at rt for 1 h. ECL™ (GE Healthcare Bio-Sciences Corp., Piscataway, N.J.) was used for detection. The band intensity was measured by densitometry using TotalLab TL100 Software v2006 (Nonlinear Dynamics Ltd., Newcastle upon Tyne, UK).

HEK293-482R2 = assay: Growth inhibition assay (96 h); assay type: cell-based, human
[2] = mouse, plasma, iv, 10 mg/kg, I.V.
[3] = mouse, plasma, po, 10 mg/kg, P.O.
[4] = mouse, plasma, sc, 10 mg/kg, S.C.

O=C(c1cccc(-c2cc3ccccc3[nH]2)c1)c1cc2ccccc2[nH]1 [Compound 13, (1H-indol-2-yl)-[3-(1H-indol-2-yl)phenyl]methanone]
metabolism (LC/MS/MS analysis of metabolites) [1]: extensive oxidative metabolism with subsequent sulfation | volume of distribution relative to total body water (0.6 L/kg) [1]: about 10 fold | F ([1]; 10 mg/kg, I.V.): 1.00 | CL ([1]; 10 mg/kg, P.O.): 238 mL/min/kg | F ([1]; 10 mg/kg, P.O.): 0.20 | CL ([1]; 10 mg/kg, S.C.): 95 mL/min/kg | F ([1]; 10 mg/kg, S.C.): 0.73 | drug excreted unchanged in urine and feces ([1]; after intravenous administration): less than 5% | hepatic extraction ([1]; from clearance and hepatic blood flow […]): exceeding 0.75 | bioavailability ([1]; mouse, plasma, 10 mg/kg, oral (P.O.)): 29% | AUC [1, 2]: 2410 ng·h/mL | Cmax [1, 2]: 2860 ng/mL | Tmax [1, 2]: 0.08 h | clearance [1, 2]: ~66.7 mL/min/kg | half-life [1, 2]: < 3 h | Vd ([1]; mouse, plasma, iv, 10 mg/kg, I.V., read-out: Vss): 6.35 L/kg | AUC [1, 3]: 690 ng·h/mL | Cmax [1, 3]: 120 ng/mL | Tmax [1, 3]: ~3 h | half-life [1, 3]: 2.97 h | AUC [1, 4]: 1770 ng·h/mL | Cmax [1, 4]: 310 ng/mL | Tmax [1, 4]: ~3 h | half-life [1, 4]: 4.52 h | bioavailability ([1]; mouse, plasma, sc, 10 mg/kg, subcutaneous (S.C.)): 73%

COc1cc(C(=O)c2cccc(-c3cc4ccccc4[nH]3)c2)cc(OC)c1OC [Compound 68, [3-(1H-Indol-2-yl)-phenyl]-(3,4,5-trimethoxy-phenyl)-methanone]
concentration at which cyclin B1 accumulation, Cdc25C (Ser216) and Cdc2 dephosphorylation were observed (cyclin B1, Cdc25C, Cdc2): higher than 50 nM | resistance factor (ratio of IC50 resistant subline to parental cell line) (HEK293-482R2; HEK293-482R2 (BCRP) vs HEK293-pcDNA3-10): (1.0) | IC50 (HEK293-482R2; Homo sapiens, HEK293-482R2, BCRP over-expressed, 96 h): 13.6 ± 1.3 nM

Reference: patent US20120022121A1, “INDOLES, DERIVATIVES AND ANALOGS THEREOF AND USES THEREFOR” (priority 2007, published 2012)
